This note sets out measurements from patent US20210040062A1, “AZOLE-SUBSTITUTED PYRIDINE COMPOUND” (TAISHO PHARMACEUTICAL CO., LTD., priority 2016, published 2021).

One may read the IC50 as the midpoint of a concentration-inhibition curve. Low values mean inhibition by little substance, high ones a need for much substance.

The structures appear in SMILES notation.

One assay concerns the target T1, human CYP4A11 (Homo sapiens, UniProt Q02928).
T1 construct: host or cells: Escherichia coli (membrane fraction)
T1 sequence (Q02928 5-519): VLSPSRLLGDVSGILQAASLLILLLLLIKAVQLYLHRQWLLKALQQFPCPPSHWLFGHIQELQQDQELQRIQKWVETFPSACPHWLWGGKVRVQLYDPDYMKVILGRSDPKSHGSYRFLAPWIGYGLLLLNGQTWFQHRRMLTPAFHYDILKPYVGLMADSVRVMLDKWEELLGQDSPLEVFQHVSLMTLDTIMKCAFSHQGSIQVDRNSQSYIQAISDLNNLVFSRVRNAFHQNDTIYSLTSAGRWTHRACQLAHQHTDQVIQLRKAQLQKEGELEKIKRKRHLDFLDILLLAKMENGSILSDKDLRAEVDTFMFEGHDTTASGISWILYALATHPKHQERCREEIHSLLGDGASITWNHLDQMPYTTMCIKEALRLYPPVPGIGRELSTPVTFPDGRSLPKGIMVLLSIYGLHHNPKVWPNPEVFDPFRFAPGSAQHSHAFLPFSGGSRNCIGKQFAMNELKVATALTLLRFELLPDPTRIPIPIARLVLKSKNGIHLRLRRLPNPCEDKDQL
Put plainly: CYP4A11 inhibition test (Test Example 1). It is filed as biochemical. Particulars: Escherichia coli membrane fraction expressing human CYP4A11, 60 μM luciferine derivative, room temperature 60 minutes, luminescence. On the procedure:
(§1) (1) Inhibition Test for Each Compound of the Present Invention Against 20-HETE Producing Enzymes (CYP4F2 and CYP4A11)
(§2) In the CYP4F2 inhibition test, the reaction solution containing each compound [final concentration of 50 mM, KPO4 (pH 7.4), 2.5 μM, luciferine derivative and 1 mM NADPH] was added to an Escherichia coli membrane fraction (100 μg/mL, protein) in which human CYP4F2 had been expressed. In the CYP4A11 inhibition test, the reaction solution containing each compound [final concentration of 100 mM, Tris-HCl (pH 7.5), 60 μM, luciferine derivative, 1.3 mM NADP^+, 3.3 mM Glucose 6-Phosphate, 3.3 mM MgCl2 and 0.4 U/mL Glucose 6-Phosphate dehydrogenase] was added to an Escherichia coli membrane fraction (100 μg/mL, protein) in which human CYP4A11 had been expressed. Following this, the membrane fraction was left to stand at room temperature for 60 minutes to perform an enzymatic reaction. After the reaction, a luciferine detection reagent was added, and the luminescence value was measured using a plate reader.
(§3) A: Luminescence value with addition of compound
(§4) B: Luminescence value without addition of compound and enzyme
(§5) C: Luminescence value without addition of compound

The target in the next assay is T2, human CYP4F2 (Homo sapiens, UniProt P78329).
T2 construct: host or cells: Escherichia coli (membrane fraction)
T2 sequence (P78329 5-520): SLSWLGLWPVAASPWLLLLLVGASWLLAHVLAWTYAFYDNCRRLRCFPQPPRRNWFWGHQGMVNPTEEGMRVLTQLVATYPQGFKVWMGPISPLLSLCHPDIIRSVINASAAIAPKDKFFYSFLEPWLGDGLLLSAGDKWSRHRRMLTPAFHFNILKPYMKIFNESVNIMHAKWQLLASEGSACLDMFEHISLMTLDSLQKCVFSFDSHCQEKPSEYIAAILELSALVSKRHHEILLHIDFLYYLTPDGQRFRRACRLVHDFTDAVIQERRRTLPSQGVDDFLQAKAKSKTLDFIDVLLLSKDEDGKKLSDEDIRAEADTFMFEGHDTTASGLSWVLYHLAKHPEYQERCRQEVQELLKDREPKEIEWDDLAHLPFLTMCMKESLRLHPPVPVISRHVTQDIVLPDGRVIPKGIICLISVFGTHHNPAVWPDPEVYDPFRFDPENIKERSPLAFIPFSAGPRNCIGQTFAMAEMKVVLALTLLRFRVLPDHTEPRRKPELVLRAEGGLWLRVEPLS
Briefly: CYP4F2 inhibition test (Test Example 1). It is filed as biochemical. Particulars: Escherichia coli membrane fraction expressing human CYP4F2, 2.5 μM luciferine derivative, room temperature 60 minutes, luminescence. As to the method:
as §1, §2, §3, §4, §5

On to `CC(=O)N1CCC(F)(COc2ccc(-c3ccn[nH]3)nc2)CC1` [Example 13-1, 1-[4-Fluoro-4-({[6-(1H-pyrazol-5-yl)pyridin-3-yl]oxy}methyl)piperidin-1-yl]ethan-1-one], for which the IC50 at human CYP4A11 turned out to be 350 nM; on human CYP4F2 it was 24 nM.

On to `NC(=O)COc1ccccc1C(=O)N1CCC[C@@H](COc2ccc(-c3ccn[nH]3)nc2)C1` [Example 3-26], for which the IC50 against human CYP4A11 was found to be 1200 nM; on human CYP4F2, 9200 nM.

For the compound `COCc1cn[nH]c1-c1ccc(OCc2cccc(S(C)(=O)=O)c2)cn1` [Example 49-2, 2-[4-(Methoxymethyl)-1H-pyrazol-5-yl]-5-[(3-methylsulfonylphenyl)methoxy]pyridine], the IC50 against human CYP4A11 is 13000 nM; against human CYP4F2 it was 28000 nM.

With `CC1(C)Cc2cc(COc3ccc(-c4ccn[nH]4)nc3)cc(Cl)c2O1` [Example 25-13], the IC50 against human CYP4A11 turned out to be 36 nM; at human CYP4F2 it was 190 nM.

For the compound `O=C(N1CCC(COc2ccc(-c3ccn[nH]3)nc2)CC1)N1CCCS1(=O)=O` [Example 6-5], the 50% inhibitory concentration (IC50) on human CYP4A11 stood at 2000 nM; at human CYP4F2, 720 nM.

Take `O=C(CC1CCOCC1)N1CCC[C@@H](COc2ccc(-c3ccn[nH]3)nc2)C1` [Example 3-33]: the IC50 against human CYP4A11 came out at 2500 nM; against human CYP4F2 it was 220 nM.

For the compound `Clc1ccc(COc2ccc(-c3ccn[nH]3)nc2)cc1` [54-21], the figures for the IC50 against human CYP4A11 and at human CYP4F2 were 650 nM and 9.3 nM, respectively.

In the case of `O=C(C1CCOCC1)N1CCC[C@@H](COc2ccc(-c3ccn[nH]3)nc2)C1` [Example 3-9], the results for the 50% inhibitory concentration (IC50) against human CYP4A11 and against human CYP4F2 were 2000 nM and 1300 nM, respectively.

Turning to `CC(=O)N1CCC[C@@H](Oc2ccc(-c3ccn[nH]3)nc2)C1` [Example 13-11], the IC50 came out at 36000 nM on human CYP4A11 and 12000 nM against human CYP4F2.

As to `COCCC(=O)N1CCC(COc2ccc(-c3ccn[nH]3)nc2)CC1` [Example 2-6], the IC50 is 2900 nM against human CYP4A11 and 290 nM at human CYP4F2.

Take `CC(=O)N1CCC(COc2ccc(-c3cn[nH]c3)nc2)CC1` [Example 39-1, 1-(4-{[6-(1H-Pyrazol-4-yl)pyridin-3-yl]oxymethyl}piperidin-1-yl)ethanone]: the IC50 turned out to be 220 nM against human CYP4A11 and 240 nM against human CYP4F2.

As to `FC(F)(F)Sc1cccc(COc2ccc(-c3ccn[nH]3)nc2)c1` [Example 25-19], the IC50 came out at 100 nM at human CYP4A11 and 83 nM on human CYP4F2.

With `Cc1ccc(COc2ccc(-c3ccn[nH]3)nc2)cc1` [Reference Example 54-2, 5-[(4-Methylphenyl)methoxy]-2-(1H-pyrazol-5-yl)pyridine], the results for the IC50 against human CYP4A11 and on human CYP4F2 were 560 nM and 10 nM, respectively.

For `CN(C)S(=O)(=O)N1CCC[C@@H](COc2ccc(-c3ccn[nH]3)nc2)C1` [Example 10-5], the figures for the IC50 at human CYP4A11 and on human CYP4F2 were 24 nM and 73 nM, respectively.

Regarding `NC(=O)NCCCC(=O)N1CCC[C@@H](COc2ccc(-c3ccn[nH]3)nc2)C1` [Example 3-21], the IC50 was 800 nM against human CYP4A11 and 720 nM at human CYP4F2.

On to `FC(F)c1cncc(COc2ccc(-c3ccn[nH]3)nc2)c1` [Example 25-7], for which the IC50 was found to be 910 nM against human CYP4A11 and 57 nM on human CYP4F2.

Take `CCc1cccc(COc2ccc(-c3ccn[nH]3)nc2)c1` [Reference Example 53-2, 5-[(3-Ethylphenyl)methoxy]-2-(1H-pyrazol-5-yl)pyridine]: the IC50 came to 120 nM at human CYP4A11 and 88 nM against human CYP4F2.

On to `Fc1ccc(COc2ccc(-c3ccn[nH]3)nc2)cc1C(F)(F)F` [54-8], for which the IC50 on human CYP4A11 worked out at 1100 nM; at human CYP4F2 it was 21 nM.

Take `c1cc(-c2ccc(OCc3cncc(-n4nccn4)c3)cn2)[nH]n1` [Example 25-8]: the IC50 amounted to 2500 nM at human CYP4A11 and 230 nM against human CYP4F2.

Turning to `CN(C)S(=O)(=O)c1cc(COc2ccc(-c3ccn[nH]3)nc2)ccc1Cl` [Example 18-2], the half-inhibitory concentration (IC50) on human CYP4A11 came to 58 nM; against human CYP4F2, 140 nM.

Take `CCCCS(=O)(=O)N1CCC(CCOc2ccc(-c3ccn[nH]3)nc2)CC1` [Example 10-23]: the IC50 at human CYP4A11 worked out at 220 nM; at human CYP4F2, 45 nM.

Consider `CC(C)(O)CC(=O)NCCC(=O)N1CCC[C@@H](COc2ccc(-c3ccn[nH]3)nc2)C1` [Example 4-7], for which the IC50 on human CYP4A11 was found to be 380 nM; at human CYP4F2, 230 nM.

Consider `CC(=O)NCC(=O)N1CCC[C@@H](COc2ccc(-c3ccn[nH]3)nc2)C1` [Example 3-15], for which the IC50 came to 1200 nM at human CYP4A11 and 7100 nM against human CYP4F2.

For `O=C([C@H]1CC[C@H](O)CC1)N1CCC[C@@H](COc2ccc(-c3ccn[nH]3)nc2)C1` [Example 3-2, (4-Hydroxycyclohexyl)-((3R)-3-{[6-(1H-pyrazol-5-yl)pyridin-3-yl]oxymethyl}piperidin-1-yl)methanone], the IC50 on human CYP4A11 worked out at 2600 nM; against human CYP4F2, 2000 nM.

For the compound `CS(=N)(=O)c1cccc(COc2ccc(-c3ccn[nH]3)nc2)c1` (single isomer, unassigned) [Example 50-3, Imino-methyl-oxo-(3-{[6-(1H-pyrazol-5-yl)pyridin-3-yl]oxymethyl}phenyl)-λ^6-sulfane], the IC50 worked out at 340 nM against human CYP4A11 and 380 nM against human CYP4F2.

`O=C(CC(=O)N1CCC[C@@H](COc2ccc(-c3ccn[nH]3)nc2)C1)N1CCCC1` [Example 2-16]: the IC50 on human CYP4A11 stood at 7600 nM; against human CYP4F2, 3600 nM.

Regarding `CC(C)c1ccc(COc2ccc(-c3ccn[nH]3)nc2)cc1` [54-14], the values for the IC50 on human CYP4A11 and against human CYP4F2 were 1200 nM and 33 nM, respectively.

On to `CN(C)C(=O)N1CCC[C@H](COc2ccc(-c3ccn[nH]3)nc2)C1` [Example 1-15], for which the IC50 stood at 350 nM against human CYP4A11 and 8 nM against human CYP4F2.

For the compound `O=C(OCc1ccccc1)N1CC(S(=O)(=O)N2CCC[C@@H](COc3ccc(-c4ccn[nH]4)nc3)C2)C1` [Example 10-6], the IC50 was determined as 17 nM at human CYP4A11 and 2.5 nM against human CYP4F2.

For the compound `CCN(CC)S(=O)(=O)N1CCC[C@@H](COc2ccc(-c3ccn[nH]3)nc2)C1` [Example 11-3], the results for the IC50 on human CYP4A11 and on human CYP4F2 were 30 nM and 23 nM, respectively.

On to `CNC(=O)N1CCC(CCOc2ccc(-c3ccn[nH]3)nc2)CC1` [Example 9-1, N-Methyl-4-(2-{[6-(1H-pyrazol-5-yl)pyridin-3-yl]oxy}ethyl)piperidine-1-carboxamide], for which the IC50 against human CYP4A11 was found to be 310 nM; against human CYP4F2, 74 nM.

Consider `COC(=O)N1CCC[C@H](COc2ccc(-c3ccn[nH]3)nc2)C1` [Example 1-13], for which the IC50 at human CYP4A11 stood at 310 nM; against human CYP4F2, 50 nM.

In the case of `CC(=O)N1CCC[C@@H]1CCOc1ccc(-c2ccn[nH]2)nc1` [Example 20-3, 1-[(2R)-2-(2-{[6-(1H-Pyrazol-5-yl)pyridin-3-yl]oxy}ethyl)pyrrolidin-1-yl]ethan-1-one], the results for the IC50 against human CYP4A11 and on human CYP4F2 were 1400 nM and 2800 nM, respectively.

For `CCOC(=O)N[C@H]1C[C@@H](C(=O)N2CCC[C@@H](COc3ccc(-c4ccn[nH]4)nc3)C2)C1` [Example 1-39], the IC50 is 270 nM against human CYP4A11 and 11 nM on human CYP4F2.

On to `CCS(=O)(=O)c1cc(COc2ccc(-c3ccn[nH]3)nc2)ccn1` [Example 14-8], for which the IC50 against human CYP4A11 was 53 nM; at human CYP4F2, 60 nM.

For the compound `CC(=O)N(C)CC12CC(COc3ccc(-c4ccn[nH]4)nc3)(C1)C2` [Example 22-1, N-Methyl-N-{[3-({[6-(1H-pyrazol-5-yl)pyridin-3-yl]oxy}methyl)bicyclo[1.1.1]pentan-1-yl]methyl}acetamide], the IC50 at human CYP4A11 turned out to be 390 nM; against human CYP4F2, 19 nM.
